Measured values taken from patent US8075659B2, “Preparations with improved urease-inhibiting effect and urea-containing fertilizers containing the latter” (BASF SE, priority 2006, dated 2011).
Where two headings read alike, the source gives them in different places.

Legend:
[1] = system: urease; settings: granulated urea, Limburgerhof soil; for % N loss based on fertilized N quantity: 10 days' incubation, inhibitor 0.125% (w/w) based on urea, 20° C.; for % N loss relative to NBTPT without mixing partner / % N loss relative to NcHTPT without mixing partner / % N loss relative to NPenTPT without mixing partner / % N loss relative to NiBTPT without mixing partner / % N loss relative to NPTPT without mixing partner: 10 days
Experimental: (§1) The efficacy of the (thio)phosphoric triamides, individually and in combination, was tested by a method based on that of Fenn & Kissel ((1973) Ammonia volatilization from surface applications of ammonium compounds on calcareous soils. Soil Sci. Soc. Am. J. 37, 855-859) for their effect in limiting ammonia volatilization from urea or urea-comprising fertilizers. Three different soils in which ammonia volatilization after urea fertilization is particularly pronounced were used. These soils are distinguished by relatively high pH values of >6.5 and/or low base buffering. […] 200 g of dry soil per incubation vessel were moistened with 5.4 ml of fully demineralized water, and 1.087 g of urea (corresponds to 500 mg of urea-N) were applied in the form of granules. If urea-comprising solutions were tested, the 200 g of soil were moistened with an aqueous urea-comprising solution comprising 1.630 g of urea (corresponds to 750 mg of urea-N), without or with urease inhibitor or combinations of these. The solution was applied dropwise over the entire soil surface, using a pipette. The amount of (thio)phosphoric triamides as individual substances or in combination in different proportions was always a uniform 0.125% (w/w) based on urea. The incubations were accomplished at 20° C. (18-22° C.) in a controlled-environment cabinet. The ammonia collected in the acid trap was determined quantitatively as ammonium using a continuous flow analyzer (from Bran+Luebbe), proceeding by methods with which the skilled worker is familiar.

[2] = system: urease; settings: Limburgerhof soil; for % N loss based on fertilized N quantity: 30% strength urea solution, 10 days' incubation, inhibitor 0.125% (w/w) based on urea, 20° C.; for % N loss relative to NBTPT without mixing partner / % N loss relative to NcHTPT without mixing partner / % N loss relative to NPenTPT without mixing partner / % N loss relative to NiBTPT without mixing partner / % N loss relative to NPTPT without mixing partner / % N loss relative to NNDBTPT without mixing partner / % N loss relative to NNDiTPT without mixing partner: 30% urea solution, 10 days
Experimental: as §1

[3] = system: urease; settings: Table 9, granulated urea, soil in Hanover; for % N loss based on fertilized N quantity: 10 days' incubation, inhibitor 0.125% (w/w) based on urea, 20° C.; for % N loss relative to NBTPT without mixing partner / % N loss relative to NPTPT without mixing partner: 10 days, NBTPT/NPTPT series
Experimental: as §1

[4] = system: urease; settings: Table 10, granulated urea, soil in France; for % N loss based on fertilized N quantity: 10 days' incubation, inhibitor 0.125% (w/w) based on urea, 20° C.; for % N loss relative to NBTPT without mixing partner / % N loss relative to NPTPT without mixing partner: 10 days, NBTPT/NPTPT series
Experimental: as §1

[5] = Table 11, comparative experiment
[6] = Table 12, comparative experiment
[7] = Table 12, NBTPT/NNDiBTPT series

SMILES: CCCCNP(N)(N)=S [NBTPT, N-n-butylthiophosphoric triamide]
- % N loss based on fertilized N quantity ([1]; Table 1): 1.54%
- % N loss relative to NBTPT without mixing partner ([1]; Table 1, NBTPT/NcHTPT series): 100%
- % N loss relative to NcHTPT without mixing partner ([1]; Table 1, NBTPT/NcHTPT series): 56%
- % N loss based on fertilized N quantity ([1]; Table 2): 1.54%
- % N loss relative to NBTPT without mixing partner ([1]; Table 2, NBTPT/NPenTPT series): 100%
- % N loss relative to NPenTPT without mixing partner ([1]; Table 2, NBTPT/NPenTPT series): 63%
- % N loss based on fertilized N quantity ([1]; Table 3): 1.54%
- % N loss relative to NBTPT without mixing partner ([1]; Table 3, NBTPT/NiBTPT series): 100%
- % N loss relative to NiBTPT without mixing partner ([1]; Table 3, NBTPT/NiBTPT series): 92%
- % N loss based on fertilized N quantity ([1]; Table 4): 1.54%
- % N loss relative to NBTPT without mixing partner ([1]; Table 4, NBTPT/NPTPT series): 100%
- % N loss relative to NPTPT without mixing partner ([1]; Table 4, NBTPT/NPTPT series): 96%
- % N loss based on fertilized N quantity ([2]; Table 5): 0.69%
- % N loss relative to NBTPT without mixing partner ([2]; Table 5, NBTPT/NcHTPT series): 100%
- % N loss relative to NcHTPT without mixing partner ([2]; Table 5, NBTPT/NcHTPT series): 62%
- % N loss based on fertilized N quantity ([2]; Table 6): 0.71%
- % N loss relative to NBTPT without mixing partner ([2]; Table 6, NBTPT/NPenTPT series): 100%
- % N loss relative to NPenTPT without mixing partner ([2]; Table 6, NBTPT/NPenTPT series): 63%
- % N loss based on fertilized N quantity ([2]; Table 7): 0.33%
- % N loss relative to NBTPT without mixing partner ([2]; Table 7, NBTPT/NiBTPT series): 100%
- % N loss relative to NiBTPT without mixing partner ([2]; Table 7, NBTPT/NiBTPT series): 61%
- % N loss based on fertilized N quantity ([2]; Table 8): 0.33%
- % N loss relative to NBTPT without mixing partner ([2]; Table 8, NBTPT/NPTPT series): 100%
- % N loss relative to NPTPT without mixing partner ([2]; Table 8, NBTPT/NPTPT series): 79%
- % N loss based on fertilized N quantity [2, 5]: 1.90%
- % N loss relative to NBTPT without mixing partner ([2]; Table 11, NBTPT/NNDBTPT series): 100%
- % N loss relative to NNDBTPT without mixing partner ([2]; Table 11, NBTPT/NNDBTPT series): 10%
- % N loss based on fertilized N quantity [2, 6]: 1.90%
- % N loss relative to NBTPT without mixing partner [2, 7]: 100%
- % N loss relative to NNDiTPT without mixing partner [2, 7]: 9%
- % N loss based on fertilized N quantity [3]: 1.32%
- % N loss relative to NBTPT without mixing partner [3]: 100%
- % N loss relative to NPTPT without mixing partner [3]: 63%
- % N loss based on fertilized N quantity [4]: 1.30%
- % N loss relative to NBTPT without mixing partner [4]: 100%
- % N loss relative to NPTPT without mixing partner [4]: 83%

SMILES: CCCCN(CCCC)P(N)(N)=S [NNDBTPT, N,N-di-n-butylthiophosphoric triamide]
- % N loss based on fertilized N quantity [2, 5]: 19.24%
- % N loss relative to NBTPT without mixing partner ([2]; Table 11, NBTPT/NNDBTPT series): 1013%
- % N loss relative to NNDBTPT without mixing partner ([2]; Table 11, NBTPT/NNDBTPT series): 100%

SMILES: CC(C)CN(CC(C)C)P(N)(N)=S [NNDiBTPT, N,N-di-isobutylthiophosphoric triamide]
- % N loss based on fertilized N quantity [2, 6]: 21.83%
- % N loss relative to NBTPT without mixing partner [2, 7]: 1149%
- % N loss relative to NNDiTPT without mixing partner [2, 7]: 100%

SMILES: CCCNP(N)(N)=S [NPTPT, N-n-propylthiophosphoric triamide]
- % N loss based on fertilized N quantity ([1]; Table 4): 1.60%
- % N loss relative to NBTPT without mixing partner ([1]; Table 4, NBTPT/NPTPT series): 104%
- % N loss relative to NPTPT without mixing partner ([1]; Table 4, NBTPT/NPTPT series): 100%
- % N loss based on fertilized N quantity ([2]; Table 8): 0.42%
- % N loss relative to NBTPT without mixing partner ([2]; Table 8, NBTPT/NPTPT series): 127%
- % N loss relative to NPTPT without mixing partner ([2]; Table 8, NBTPT/NPTPT series): 100%
- % N loss based on fertilized N quantity [3]: 2.08%
- % N loss relative to NBTPT without mixing partner [3]: 158%
- % N loss relative to NPTPT without mixing partner [3]: 100%
- % N loss based on fertilized N quantity [4]: 1.57%
- % N loss relative to NBTPT without mixing partner [4]: 121%
- % N loss relative to NPTPT without mixing partner [4]: 100%

SMILES: CCCCCNP(N)(N)=S [NPenTPT, N-pentylthiophosphoric triamide]
- % N loss based on fertilized N quantity ([1]; Table 2): 2.46%
- % N loss relative to NBTPT without mixing partner ([1]; Table 2, NBTPT/NPenTPT series): 130%
- % N loss relative to NPenTPT without mixing partner ([1]; Table 2, NBTPT/NPenTPT series): 100%
- % N loss based on fertilized N quantity ([2]; Table 6): 1.12%
- % N loss relative to NBTPT without mixing partner ([2]; Table 6, NBTPT/NPenTPT series): 158%
- % N loss relative to NPenTPT without mixing partner ([2]; Table 6, NBTPT/NPenTPT series): 100%

SMILES: NP(N)(=S)NC1CCCCC1 [NcHTPT, N-cyclohexylthiophosphoric triamide]
- % N loss based on fertilized N quantity ([1]; Table 1): 2.77%
- % N loss relative to NBTPT without mixing partner ([1]; Table 1, NBTPT/NcHTPT series): 180%
- % N loss relative to NcHTPT without mixing partner ([1]; Table 1, NBTPT/NcHTPT series): 100%
- % N loss based on fertilized N quantity ([2]; Table 5): 1.11%
- % N loss relative to NBTPT without mixing partner ([2]; Table 5, NBTPT/NcHTPT series): 160%
- % N loss relative to NcHTPT without mixing partner ([2]; Table 5, NBTPT/NcHTPT series): 100%

SMILES: CC(C)CNP(N)(N)=S [NiBTPT, N-isobutylthiophosphoric triamide]
- % N loss based on fertilized N quantity ([1]; Table 3): 1.68%
- % N loss relative to NBTPT without mixing partner ([1]; Table 3, NBTPT/NiBTPT series): 109%
- % N loss relative to NiBTPT without mixing partner ([1]; Table 3, NBTPT/NiBTPT series): 100%
- % N loss based on fertilized N quantity ([2]; Table 7): 0.54%
- % N loss relative to NBTPT without mixing partner ([2]; Table 7, NBTPT/NiBTPT series): 164%
- % N loss relative to NiBTPT without mixing partner ([2]; Table 7, NBTPT/NiBTPT series): 100%
